Experimental findings from patent US12581252B2, “Substituted pyrrolo[3,4-b]pyridines as PI3K-α inhibitors” (Relay Therapeutics, Inc., priority 2020, dated 2026) are described below.

Where only a bound is given, the exact number is not on record here.

One may read the IC50 as the midpoint of a concentration-inhibition curve.

Chain of H1047R PIK3CA enzyme (P42336 whole entry H1047R): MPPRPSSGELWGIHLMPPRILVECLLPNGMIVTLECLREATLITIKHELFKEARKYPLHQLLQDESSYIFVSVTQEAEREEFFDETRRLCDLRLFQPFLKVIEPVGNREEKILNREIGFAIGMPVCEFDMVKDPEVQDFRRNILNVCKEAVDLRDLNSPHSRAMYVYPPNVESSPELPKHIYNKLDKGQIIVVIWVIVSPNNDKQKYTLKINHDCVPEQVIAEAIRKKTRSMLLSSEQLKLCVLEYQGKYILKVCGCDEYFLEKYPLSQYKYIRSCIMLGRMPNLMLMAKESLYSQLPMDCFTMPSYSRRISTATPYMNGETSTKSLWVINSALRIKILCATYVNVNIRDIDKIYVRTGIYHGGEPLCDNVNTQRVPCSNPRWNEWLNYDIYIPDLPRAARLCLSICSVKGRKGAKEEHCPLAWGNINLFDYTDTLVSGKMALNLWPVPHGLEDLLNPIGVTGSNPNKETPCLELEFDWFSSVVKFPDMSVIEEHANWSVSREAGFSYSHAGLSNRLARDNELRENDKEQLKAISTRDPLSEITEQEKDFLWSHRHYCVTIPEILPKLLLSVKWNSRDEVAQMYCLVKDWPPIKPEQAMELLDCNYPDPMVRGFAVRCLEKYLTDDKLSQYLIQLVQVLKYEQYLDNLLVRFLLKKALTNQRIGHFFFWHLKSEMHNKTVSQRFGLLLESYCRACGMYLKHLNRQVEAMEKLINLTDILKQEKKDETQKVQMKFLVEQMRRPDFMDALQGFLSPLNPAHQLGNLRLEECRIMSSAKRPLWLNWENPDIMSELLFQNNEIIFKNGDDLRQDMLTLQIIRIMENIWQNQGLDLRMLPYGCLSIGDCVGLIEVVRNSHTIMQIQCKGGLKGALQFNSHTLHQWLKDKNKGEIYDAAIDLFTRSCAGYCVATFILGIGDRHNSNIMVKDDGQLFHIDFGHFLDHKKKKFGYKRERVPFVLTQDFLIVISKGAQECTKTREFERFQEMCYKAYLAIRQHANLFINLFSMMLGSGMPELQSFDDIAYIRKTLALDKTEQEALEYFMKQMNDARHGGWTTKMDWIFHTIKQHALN
Chain of H1047R PIK3CA enzyme (P27986 whole entry partner): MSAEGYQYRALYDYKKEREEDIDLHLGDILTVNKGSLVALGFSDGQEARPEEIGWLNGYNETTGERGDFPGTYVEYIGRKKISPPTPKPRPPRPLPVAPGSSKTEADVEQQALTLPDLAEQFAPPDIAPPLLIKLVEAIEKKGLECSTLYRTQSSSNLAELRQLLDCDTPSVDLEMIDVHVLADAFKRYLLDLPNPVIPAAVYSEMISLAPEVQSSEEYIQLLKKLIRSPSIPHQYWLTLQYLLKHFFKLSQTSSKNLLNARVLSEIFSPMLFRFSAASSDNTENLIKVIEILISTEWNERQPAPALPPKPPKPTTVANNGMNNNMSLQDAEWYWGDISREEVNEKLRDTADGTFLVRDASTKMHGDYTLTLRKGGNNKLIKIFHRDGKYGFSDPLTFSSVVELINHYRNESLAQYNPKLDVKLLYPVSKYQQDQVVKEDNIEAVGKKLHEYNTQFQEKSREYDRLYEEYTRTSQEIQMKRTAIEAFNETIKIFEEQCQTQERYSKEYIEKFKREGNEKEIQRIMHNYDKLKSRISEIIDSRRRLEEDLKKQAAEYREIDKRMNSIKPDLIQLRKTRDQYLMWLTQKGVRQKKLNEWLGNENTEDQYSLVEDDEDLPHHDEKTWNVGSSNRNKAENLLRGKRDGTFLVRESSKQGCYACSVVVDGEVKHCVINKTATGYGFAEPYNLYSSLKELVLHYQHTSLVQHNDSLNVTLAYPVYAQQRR

The experiment addresses H1047R PIK3CA enzyme (Homo sapiens, UniProt P42336, H1047R). The experiment in a line: ADP-Glo Biochemical PIK3CA Kinase Assay.
As for `CNC1(c2cc(F)ccc2Cl)NC(=O)c2cc(C[S+](C)[O-])cc(NC(=O)c3cc(F)cc(C(F)(F)F)c3)c21` (stereo not drawn) [Compound I-1138], the IC50 was in the range of 1000 to 10000 nM.

In turn, `CC(C)(C)C(=O)Nc1cc(Br)cc2c1C(c1cc(F)ccc1Cl)NC2=O` (stereo not drawn) [Compound I-1139] returned an IC50 of 1000 to 10000 nM.

Regarding `N#Cc1cnn(-c2cc(NC(=O)c3cc(F)cc(C(F)(F)F)c3)c3c(c2)C(=O)NC3c2cc(F)ccc2Cl)c1` (stereo not drawn) [Compound I-1140], the IC50 is no more than 100 nM.

`O=C(Nc1cc(C2(O)COCC2O)cc2c1C(c1cc(F)ccc1Cl)NC2=O)c1cc(F)cc(C(F)(F)F)c1` (stereo not drawn) [Compound I-1141] displayed an IC50 of 100 to 500 nM.

Molecule `O=C(Nc1cc(C2CCCOC2)cc2c1C(c1cc(F)ccc1Cl)NC2=O)c1cc(F)cc(C(F)(F)F)c1` (stereo not drawn) [Compound I-1142] came in with an IC50 of no more than 100 nM.

Consider `COc1ccnc(Oc2cc(NC(=O)c3cc(F)cc(C(F)(F)F)c3)c3c(c2)C(=O)NC3c2cc(F)ccc2Cl)n1` (stereo not drawn) [Compound I-1143], for which the IC50 lay in the range of 100 to 500 nM.

In turn, `Cn1nccc1Nc1cc(NC(=O)c2cc(F)cc(C(F)(F)F)c2)c2c(c1)C(=O)N[C@H]2c1cc(F)ccc1Cl` [Compound I-1144] returned an IC50 of no more than 100 nM.

Consider `Cn1nccc1Nc1cc(NC(=O)c2cc(F)cc(C(F)(F)F)c2)c2c(c1)C(=O)N[C@@H]2c1cc(F)ccc1Cl` [Compound I-1145], for which the IC50 lay within 1000 to 10000 nM.

For `COc1ccc(Oc2cc(NC(=O)c3cc(F)cc(C(F)(F)F)c3)c3c(c2)C(=O)NC3c2cc(F)ccc2Cl)nn1` (stereo not drawn) [Compound I-1147], the IC50 is no more than 100 nM.

In turn, `COc1nccc(Oc2cc(NC(=O)c3cc(F)cc(C(F)(F)F)c3)c3c(c2)C(=O)NC3c2cc(F)ccc2Cl)n1` (stereo not drawn) [Compound I-1148] yielded an IC50 of no more than 100 nM.

In turn, `O=C(Nc1cc(OC2CS(=O)(=O)C2)cc2c1C(c1cc(F)ccc1Cl)NC2=O)c1cc(F)cc(C(F)(F)F)c1` (stereo not drawn) [Compound I-1149] registered an IC50 of 1000 to 10000 nM.

Take `C[S+]([O-])c1ccccc1-c1cc(NC(=O)c2cc(F)cc(C(F)(F)F)c2)c2c(c1)C(=O)NC2c1cc(F)ccc1Cl` (stereo not drawn) [Compound I-1150]: the IC50 was no more than 100 nM.

As to `COc1ncc(-c2cc(NC(=O)c3cc(F)cc(C(F)(F)F)c3)c3c(c2)C(=O)NC3c2cc(F)ccc2Cl)c(N)n1` (stereo not drawn) [Compound I-1151], the 50% inhibitory concentration (IC50) fell in the range of 100 to 500 nM.

As for `Cc1ncccc1-c1cc(NC(=O)c2cc(F)cc(C(F)(F)F)c2)c2c(c1)C(=O)NC2c1cc(F)ccc1Cl` (stereo not drawn) [Compound I-1152], the IC50 was no more than 100 nM.

Regarding `Nc1ncc(C#Cc2cc(NC(=O)c3cc(F)cc(C(F)(F)F)c3)c3c(c2)C(=O)NC3c2cc(F)ccc2Cl)cn1` (stereo not drawn) [Compound I-1153], the IC50 was no more than 100 nM.

`O=C(Nc1cc(C#CC2(O)COC2)cc2c1C(c1cc(F)ccc1Cl)NC2=O)c1cc(F)cc(C(F)(F)F)c1` (stereo not drawn) [Compound I-1154] registered an IC50 of no more than 100 nM.

Molecule `Cn1cc(C#Cc2cc(NC(=O)c3cc(F)cc(C(F)(F)F)c3)c3c(c2)C(=O)NC3c2cc(F)ccc2Cl)cn1` (stereo not drawn) [Compound I-1155] showed an IC50 of no more than 100 nM.

`N#CC1CC(c2cc(NC(=O)c3cc(F)cc(C(F)(F)F)c3)c3c(c2)C(=O)NC3c2cc(F)ccc2Cl)C1` (stereo not drawn) [Compound I-1175] gave an IC50 of no more than 100 nM.

In the case of `O=C(Nc1cc(C(F)(F)F)ccc1Cl)Nc1cc(Br)cc2c1C(c1cc(F)ccc1Cl)NC2=O` (stereo not drawn) [Compound I-1176], the IC50 lay in the range of 100 to 500 nM.

For `O=C1Cc2cc(NC(=O)c3cc(F)cc(C(F)(F)F)c3)ccc2C(c2ccccc2Cl)N1` (stereo not drawn) [Compound I-1177], the IC50 was 1000 to 10000 nM.

`O=C1Cc2cccc(NC(=O)c3cc(F)cc(C(F)(F)F)c3)c2C(c2ccccc2Cl)N1` (stereo not drawn) [Compound I-1178] came in with an IC50 of 1000 to 10000 nM.

On to `O=C1NC(c2cc(F)ccc2Cl)c2c(NC(=O)C34CC5CC(CC(Cl)(C5)C3)C4)cc(Br)cc21` (stereo not drawn) [Compound I-1179], for which the IC50 was no more than 100 nM.

In the case of `O=C1NC(c2cc(F)ccc2Cl)c2c(NC(=O)C34CC5CC(F)(CC(F)(C5)C3)C4)cccc21` (stereo not drawn) [Compound I-1180], the IC50 was 100 to 500 nM.

`O=C(Nc1cc(NCC2(O)CC2)cc2c1C(c1cc(F)ccc1Cl)NC2=O)c1cc(F)cc(C(F)(F)F)c1` (stereo not drawn) [Compound I-1181] came in with an IC50 of no more than 100 nM.

`O=C1NC(c2cc(F)ccc2Cl)c2c(NC(=O)C34C5C6C7C5C3C7C64)cc(Br)cc21` (stereo not drawn) [Compound I-1182] displayed an IC50 of 1000 to 10000 nM.

As for `O=C1NC(c2cc(F)ccc2Cl)c2c(NC(=O)C34CC5CC(C3)CC(C(F)(F)F)(C5)C4)cc(Br)cc21` (stereo not drawn) [Compound I-1183], the IC50 was no more than 100 nM.

With `O=C(Nc1cc(OC2CCOC2)cc2c1C(c1cc(F)ccc1Cl)NC2=O)c1cc(F)cc(C(F)(F)F)c1` (stereo not drawn) [Compound I-1184], the IC50 is no more than 100 nM.

`O=C(Nc1cc(C#Cc2ccccn2)cc2c1C(c1cc(F)ccc1Cl)NC2=O)c1cc(F)cc(C(F)(F)F)c1` (stereo not drawn) [Compound I-1185] came in with an IC50 of no more than 100 nM.

With `CCCCC(C)(O)c1cc(NC(=O)c2cc(F)cc(C(F)(F)F)c2)c2c(c1)C(=O)NC2c1cc(F)ccc1Cl` (stereo not drawn) [Compound I-1186], the IC50 was no more than 100 nM.

In turn, `O=C(Nc1cc(C2CCOCC2)cc2c1C(c1cc(F)ccc1Cl)NC2=O)c1cc(F)cc(C(F)(F)F)c1` (stereo not drawn) [Compound I-1187] showed an IC50 of no more than 100 nM.

Molecule `CC(O)(c1cc(NC(=O)c2cc(F)cc(C(F)(F)F)c2)c2c(c1)C(=O)NC2c1cc(F)ccc1Cl)c1ccccn1` (stereo not drawn) [Compound I-1188] returned an IC50 of no more than 100 nM.

Consider `O=C(Nc1cc(N2CCOc3ccccc32)cc2c1C(c1cc(F)ccc1Cl)NC2=O)c1cc(F)cc(C(F)(F)F)c1` (stereo not drawn) [Compound I-1189], for which the IC50 was no more than 100 nM.

`Cc1cnc2ccc(-c3cc(NC(=O)c4cc(F)cc(C(F)(F)F)c4)c4c(c3)C(=O)NC4c3cc(F)ccc3Cl)nn12` (stereo not drawn) [Compound I-1190] yielded an IC50 of no more than 100 nM.

`CC(C)(O)C#Cc1cc(NC(=O)c2cc(F)cc(C(F)(F)F)c2)c2c(c1)C(=O)NC2c1cc(F)ccc1Cl` (stereo not drawn) [Compound I-1191] showed an IC50 of no more than 100 nM.

In the case of `O=C(Nc1cc(C#CC2CC(F)(F)C2)cc2c1C(c1cc(F)ccc1Cl)NC2=O)c1cc(F)cc(C(F)(F)F)c1` (stereo not drawn) [Compound I-1194], the IC50 lay in the range of 100 to 500 nM.

In the case of `CS(=O)(=O)c1ccccc1-c1cc(NC(=O)c2cc(F)cc(C(F)(F)F)c2)c2c(c1)C(=O)NC2c1cc(F)ccc1Cl` (stereo not drawn) [Compound I-1195], the IC50 was no more than 100 nM.

As to `O=C(Nc1cc(C2CS(=O)(=O)C2)cc2c1C(c1cc(F)ccc1Cl)NC2=O)c1cc(F)cc(C(F)(F)F)c1` (stereo not drawn) [Compound I-1196], the IC50 is no more than 100 nM.

For `COc1ccccc1-c1cc(NC(=O)c2cc(F)cc(C(F)(F)F)c2)c2c(c1)C(=O)NC2c1cc(F)ccc1Cl` (stereo not drawn) [Compound I-1197], the IC50 lay in the range of 100 to 500 nM.

In turn, `O=C(Nc1cc(OC2CCC2(F)F)cc2c1C(c1cc(F)ccc1Cl)NC2=O)c1cc(F)cc(C(F)(F)F)c1` (stereo not drawn) [Compound I-1198] yielded an IC50 of no more than 100 nM.

`Cn1ccnc1C(C)(O)c1cc(NC(=O)c2cc(F)cc(C(F)(F)F)c2)c2c(c1)C(=O)NC2c1cc(F)ccc1Cl` (stereo not drawn) [Compound I-1199] yielded a half-inhibitory concentration (IC50) of no more than 100 nM.

In the case of `O=C(Nc1cc(CC(O)C(F)(F)F)cc2c1C(c1cc(F)ccc1Cl)NC2=O)c1cc(F)cc(C(F)(F)F)c1` (stereo not drawn) [Compound I-1200], the IC50 is no more than 100 nM.

In turn, `O=C(Nc1cc(-c2csc(C(=O)O)n2)cc2c1C(c1cc(F)ccc1Cl)NC2=O)c1cc(F)cc(C(F)(F)F)c1` (stereo not drawn) [Compound I-1201] displayed an IC50 of no more than 100 nM.

Regarding `O=C(Nc1cc(Oc2ncccn2)cc2c1C(c1cc(F)ccc1Cl)NC2=O)c1cc(F)cc(C(F)(F)F)c1` (stereo not drawn) [Compound I-1202], the IC50 was in the range of 100 to 500 nM.

For `O=C1NC(c2cc(F)ccc2Cl)c2c(NC(=O)C34CC5CC(C3)C(F)(F)C(C5)C4)cc(Br)cc21` (stereo not drawn) [Compound I-1203], the IC50 was in the range of 100 to 500 nM.

The molecule `O=C1NC(c2cc(F)ccc2Cl)c2c(NC(=O)C3(C(F)(F)F)CC3)cc(Br)cc21` (stereo not drawn) [Compound I-1204] gave an IC50 of 10000 to 100000 nM.

With `N#CN1CC(Oc2cc(NC(=O)c3cc(F)cc(C(F)(F)F)c3)c3c(c2)C(=O)NC3c2cc(F)ccc2Cl)C1` (stereo not drawn) [Compound I-1205], the IC50 was no more than 100 nM.

Take `O=C(Nc1cc(Br)cc2c1C(c1cc(F)ccc1Cl)NC2=O)Oc1ccc2c(n1)NCC2` (stereo not drawn) [Compound I-1206]: the IC50 is 10000 to 100000 nM.

Turning to `Cn1c(Cl)cc(C(=O)Nc2cc(Br)cc3c2C(c2cc(F)ccc2Cl)NC3=O)cc1=O` (stereo not drawn) [Compound I-1209], the IC50 lay in the range of 10000 to 100000 nM.

As to `CC(O)(CC#N)c1cc(NC(=O)c2cc(F)cc(C(F)(F)F)c2)c2c(c1)C(=O)NC2c1cc(F)ccc1Cl` (stereo not drawn) [Compound I-1211], the IC50 is no more than 100 nM.

On to `O=C1Nc2cccc(NC(=O)c3cc(F)cc(C(F)(F)F)c3)c2C(c2ccccc2Cl)N1` (stereo not drawn) [Compound I-1212], for which the IC50 was 1000 to 10000 nM.

As to `O=C(Nc1cc(Nc2ccccc2)cc2c1C(c1cc(F)ccc1Cl)NC2=O)c1cc(F)cc(C(F)(F)F)c1` (stereo not drawn) [Compound I-1213], the IC50 was no more than 100 nM.

In turn, `N#Cc1ncccc1-c1cc(NC(=O)c2cc(F)cc(C(F)(F)F)c2)c2c(c1)C(=O)NC2c1cc(F)ccc1Cl` (stereo not drawn) [Compound I-1214] showed an IC50 of no more than 100 nM.

Molecule `NC(=O)c1cnccc1-c1cc(NC(=O)c2cc(F)cc(C(F)(F)F)c2)c2c(c1)C(=O)NC2c1cc(F)ccc1Cl` (stereo not drawn) [Compound I-1215] showed an IC50 of 100 to 500 nM.

Molecule `O=C(Nc1cc(-c2ccccc2C(=O)O)cc2c1C(c1cc(F)ccc1Cl)NC2=O)c1cc(F)cc(C(F)(F)F)c1` (stereo not drawn) [Compound I-1216] returned an IC50 of 100 to 500 nM.

For the molecule `O=C(Nc1cc(-c2ccncc2C(=O)O)cc2c1C(c1cc(F)ccc1Cl)NC2=O)c1cc(F)cc(C(F)(F)F)c1` (stereo not drawn) [Compound I-1217], the IC50 lay within 100 to 500 nM.

Consider `O=C(Nc1cc(C2CCCN2)cc2c1C(c1cc(F)ccc1Cl)NC2=O)c1cc(F)cc(C(F)(F)F)c1` (stereo not drawn) [Compound I-1218], for which the IC50 was no more than 100 nM.

With `COc1cnccc1-c1cc(NC(=O)c2cc(F)cc(C(F)(F)F)c2)c2c(c1)C(=O)NC2c1cc(F)ccc1Cl` (stereo not drawn) [Compound I-1219], the IC50 is no more than 100 nM.

Regarding `O=C(O)Cc1ccncc1-c1cc(NC(=O)c2cc(F)cc(C(F)(F)F)c2)c2c(c1)C(=O)NC2c1cc(F)ccc1Cl` (stereo not drawn) [Compound I-1220], the IC50 was no more than 100 nM.

`Cn1ncnc1COc1cc(NC(=O)c2cc(F)cc(C(F)(F)F)c2)c2c(c1)C(=O)NC2c1cc(F)ccc1Cl` (stereo not drawn) [Compound I-1221]: the IC50 is no more than 100 nM.

The molecule `CN(C)c1ncc(-c2cc(NC(=O)c3cc(F)cc(C(F)(F)F)c3)c3c(c2)C(=O)NC3c2cc(F)ccc2Cl)cn1` (stereo not drawn) [Compound I-1222] showed an IC50 of no more than 100 nM.
